Test results as given in US20130158063A1, “Compounds, Compositions and Methods Related to PPAR Antagonists” (GEORGETOWN UNIVERSITY, priority 2010, published 2013).
Entries after “also recorded” stand apart in the source; their conditions may differ.

Columns and labels:
[1] = system: Mouse mammary tumor cell lines MC, 437T, 105T and 34T; Comma1D mammary epithelial cell line; assay: Cytotoxicity against mammary cell lines; format: cell-based; conditions: 0-25 μM BTB07995, with and without GW501516
Excerpt: Mouse mammary tumor cell lines MC, 437T, 105T and 34T were generated from primary DMBA-induced tumors in wild-type FVB, MMTV-Pax8PPARγ transgenic, Sca-1 null and Sca-1+/EGFP mice. Comma1D is an immortalized mammary epithelial cell line.

PPARδ [2] = target: T1, PPARδ (Homo sapiens, UniProt Q03181); conditions: cited from earlier work
T1 construct: purchased Cayman Chemicals
T1 sequence (Q03181 1-441): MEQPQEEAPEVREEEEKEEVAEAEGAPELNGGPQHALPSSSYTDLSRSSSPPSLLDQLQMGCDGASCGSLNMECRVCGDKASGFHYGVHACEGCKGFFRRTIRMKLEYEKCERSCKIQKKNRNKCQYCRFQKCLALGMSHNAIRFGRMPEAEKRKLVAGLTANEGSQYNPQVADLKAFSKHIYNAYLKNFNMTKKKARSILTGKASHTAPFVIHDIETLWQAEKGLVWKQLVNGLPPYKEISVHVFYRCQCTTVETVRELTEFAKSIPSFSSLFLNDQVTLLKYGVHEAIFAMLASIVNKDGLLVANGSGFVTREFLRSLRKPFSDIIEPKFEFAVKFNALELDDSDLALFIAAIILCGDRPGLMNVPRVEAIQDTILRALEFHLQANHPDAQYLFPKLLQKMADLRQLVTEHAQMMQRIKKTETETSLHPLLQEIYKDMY

PPARα, PPARγ, PPARδ = assay: PPAR reporter assays, isotype profile over the three PPARs; conditions: for PPAR inhibitor type (Table 1): from reporter data
PPARγ [3] = target: T2, PPARγ (Homo sapiens, UniProt P37231); assay: Fluorescent Polarization (FP) binding assay with corepressor peptides, PPARγ; conditions: FP assay; Nb = no binding; read-out: Binding assay EC50, γ
T2 construct: purchased Cayman Chemicals
T2 sequence (P37231 238-503 limits assumed): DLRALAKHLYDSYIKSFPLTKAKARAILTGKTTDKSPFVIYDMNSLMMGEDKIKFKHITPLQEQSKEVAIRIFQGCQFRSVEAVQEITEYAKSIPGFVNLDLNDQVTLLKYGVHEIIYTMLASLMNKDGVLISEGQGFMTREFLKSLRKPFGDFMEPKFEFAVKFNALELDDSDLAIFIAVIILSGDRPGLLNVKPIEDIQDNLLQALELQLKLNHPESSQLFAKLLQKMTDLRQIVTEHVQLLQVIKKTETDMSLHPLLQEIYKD
Method: (§1) For PPARγ screening, a fluorescent ligand supplied by Cayman Chemicals was also used. All compounds were dissolved in DMSO as 10 mM stock solutions and the final DMSO content in the assay was <1%. A TECAN Ultra 485 multi-functional microplate reader and GraphPad prism 4 software were used for measurements and analysis, respectively.
(§2) PPAR antagonists are expected to enhance the affinities of the corepressor peptides, and therefore, FP should increase as the compound concentration increases. Agonists would be expected to weaken the affinity of the same co-repressor peptide. Although this effect occurs for PPARγ, the dissociation of corepressor peptides varies for PPARα and PPARδ due to altered presentations of the overlapping coactivator/corepressor binding surfaces (Stanley T. B. et al. Biochemistry 42:9278-87, 2003). Compounds were screened initially against PPARγ and PPARδ at 1 and 100 μM. If binding was observed, titration experiments from 10 nM to 100 μM were carried out in triplicate with all three PPARs. […] For screening, either enhancement or weakening of FP was considered active.
(§3) Virtual screening for PPARγ was conducted against 56,000 compounds from the Maybridge library that targeted the ligand binding domain (LBD) of PPARγ, and 10 conformations of each compound were docked to the LBD using Autdock4 software (Scripps Institute). Sixty of the top ranked compounds were ordered from Maybridge, and 58 were available for evaluation. Fluorescent Polarization (FP) assays were established with the tagged co-repressor peptides NCoR1 and SMRT, the recombinant PPARα and PPARγ ligand-binding domains and full-length PPARδ. […] Sd-107 and its analogs are disclosed herein. The chemical structure is shown below.

PPARα [4] = assay: PPAR reporter assay in 293T cells, PPARα (agonist WY14643); format: cell-based; conditions: 1 μM agonist WY14643
PPARδ [5] = assay: PPAR reporter assay in 293T cells, PPARδ (agonist GW501516); format: cell-based; conditions: 1 μM agonist GW501516
PPARδ [6] = target: T1, PPARδ; assay: Fluorescent Polarization (FP) binding assay with corepressor peptides, PPARδ; conditions: Nb = no binding
Method: as §1, §2, §3

PPARα [7] = target: T3, PPARα (Homo sapiens, UniProt Q07869); assay: Fluorescent Polarization (FP) binding assay with corepressor peptides, PPARα; conditions: Nb = no binding
T3 construct: purchased Cayman Chemicals
T3 sequence (Q07869 239-466 limits assumed): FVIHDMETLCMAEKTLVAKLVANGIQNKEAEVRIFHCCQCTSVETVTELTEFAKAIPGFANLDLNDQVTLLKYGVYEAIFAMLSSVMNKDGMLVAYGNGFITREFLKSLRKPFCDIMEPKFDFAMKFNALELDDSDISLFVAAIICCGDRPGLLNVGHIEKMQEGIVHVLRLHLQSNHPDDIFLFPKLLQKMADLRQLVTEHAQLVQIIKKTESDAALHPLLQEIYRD
Method: as §1, §2, §3

PPARγ [8] = target: T4, PPARγ (Mus musculus, UniProt P37238); assay: PPAR reporter assay in 293T cells, PPARγ (agonist GW7845); format: cell-based; conditions: HEK-293T, 1 μM agonist GW7845, 293T cells, read-out: Reporter assay (% inhibition), γ; for inhibition at 1 µM: 1 μM compound; for inhibition at 10 µM: 10 μM compound; for inhibition at 25 µM: 25 μM compound
T4 construct: expressed in transfected cells; host or cells: 293T cells
T4 sequence (P37238 1-505): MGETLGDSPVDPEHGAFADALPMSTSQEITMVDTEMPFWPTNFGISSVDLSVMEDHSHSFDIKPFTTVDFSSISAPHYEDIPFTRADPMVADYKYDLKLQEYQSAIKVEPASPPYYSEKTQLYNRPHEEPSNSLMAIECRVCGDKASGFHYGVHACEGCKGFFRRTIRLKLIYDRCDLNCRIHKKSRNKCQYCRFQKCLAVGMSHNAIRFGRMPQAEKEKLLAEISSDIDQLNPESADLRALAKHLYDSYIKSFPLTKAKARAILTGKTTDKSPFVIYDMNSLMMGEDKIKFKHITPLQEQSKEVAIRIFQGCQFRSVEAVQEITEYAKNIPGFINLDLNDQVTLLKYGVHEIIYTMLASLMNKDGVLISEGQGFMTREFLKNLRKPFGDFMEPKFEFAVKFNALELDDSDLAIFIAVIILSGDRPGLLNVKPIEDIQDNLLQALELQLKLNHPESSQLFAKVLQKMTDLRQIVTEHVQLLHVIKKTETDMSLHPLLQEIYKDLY

Compound | Cytotoxicity to mouse mammary cell lines [1] | PPARδ ligand potency and selectivity (literature) (PPARδ [2]) | Agonist activity in Gal4-mPPAR reporter assays (PPARα, PPARγ, PPARδ; 293T cells, 24 hr, absence of specific ligand) | PPAR isotype selectivity in reporter assays (PPARα, PPARγ, PPARδ; inhibition of activation by 1 μM agonist) | EC50 (PPARγ [3]) | Reporter assay (% inhibition), α (PPARα [4]; 1 μM compound) | Reporter assay (% inhibition), α (PPARα [4]; 10 μM compound) | Reporter assay (% inhibition), α (PPARα [4]; 25 μM compound) | Reporter assay (% inhibition), δ (PPARδ [5]; 1 μM compound) | Reporter assay (% inhibition), δ (PPARδ [5]; 10 μM compound) | Reporter assay (% inhibition), δ (PPARδ [5]; 25 μM compound) | Binding assay EC50, δ (PPARδ [6]) | Binding assay EC50, α (PPARα [7]) | PPAR inhibitor type (Table 1) (PPARα, PPARγ, PPARδ) | inhibition at 1 µM (PPARγ [8]) | inhibition at 10 µM (PPARγ [8]) | inhibition at 25 µM (PPARγ [8])
O=C(NCCS(=O)(=O)c1ccc(C(F)(F)F)cn1)c1ccc(Cl)cc1 [BTB07995, reference compound] | not cytotoxic | potent and selective ligand for PPARδ | not an agonist for PPARα, PPARδ and PPARγ | PPARδ selectivity at lower concentrations; also recorded: selective antagonist of PPARδ | – | – | – | – | – | – | – | – | – | – | – | – | –
CC(=O)Oc1ccc(C(=O)NN(C(=O)c2ccc(OC(C)=O)cc2)S(=O)(=O)c2ccc(C(C)(C)C)cc2)cc1 [YL-1-87] | – | – | – | – | 0.41 µM | 0% | 0% | 52% | δ 18% | 23% | 60% | δ nb | nb | Pan inhibitor | 19% | 28% | 79%
CC(C)(C)c1ccc(S(=O)(=O)N(NC(=O)c2ccc(O)cc2)C(=O)c2ccc(O)cc2)cc1 [YL-1-88] | – | – | – | – | 22.3 µM | 0% | 0% | 0% | 0% | 14% | 40% | δ nb | nb | PPARδ inhibitor | 0% | 0% | 10%
